Consider 2 compounds from PMC8617627, “Novel DYRK1A Inhibitor Rescues Learning and Memory Deficits in a Mouse Model of Down Syndrome” (Pharmaceuticals, 2021).

Holding throughout (experiment): Kinase profile (33P ATP filter binding)
Holding throughout (format): biochemical

The target in assay [1] is BRK (Homo sapiens, UniProt Q13882). The following applies: read-out: Remaining protein kinase activity.
Assay [2] deals with T1, EPH-B3 (Homo sapiens, UniProt P54753).
T1 sequence (P54753 34-998): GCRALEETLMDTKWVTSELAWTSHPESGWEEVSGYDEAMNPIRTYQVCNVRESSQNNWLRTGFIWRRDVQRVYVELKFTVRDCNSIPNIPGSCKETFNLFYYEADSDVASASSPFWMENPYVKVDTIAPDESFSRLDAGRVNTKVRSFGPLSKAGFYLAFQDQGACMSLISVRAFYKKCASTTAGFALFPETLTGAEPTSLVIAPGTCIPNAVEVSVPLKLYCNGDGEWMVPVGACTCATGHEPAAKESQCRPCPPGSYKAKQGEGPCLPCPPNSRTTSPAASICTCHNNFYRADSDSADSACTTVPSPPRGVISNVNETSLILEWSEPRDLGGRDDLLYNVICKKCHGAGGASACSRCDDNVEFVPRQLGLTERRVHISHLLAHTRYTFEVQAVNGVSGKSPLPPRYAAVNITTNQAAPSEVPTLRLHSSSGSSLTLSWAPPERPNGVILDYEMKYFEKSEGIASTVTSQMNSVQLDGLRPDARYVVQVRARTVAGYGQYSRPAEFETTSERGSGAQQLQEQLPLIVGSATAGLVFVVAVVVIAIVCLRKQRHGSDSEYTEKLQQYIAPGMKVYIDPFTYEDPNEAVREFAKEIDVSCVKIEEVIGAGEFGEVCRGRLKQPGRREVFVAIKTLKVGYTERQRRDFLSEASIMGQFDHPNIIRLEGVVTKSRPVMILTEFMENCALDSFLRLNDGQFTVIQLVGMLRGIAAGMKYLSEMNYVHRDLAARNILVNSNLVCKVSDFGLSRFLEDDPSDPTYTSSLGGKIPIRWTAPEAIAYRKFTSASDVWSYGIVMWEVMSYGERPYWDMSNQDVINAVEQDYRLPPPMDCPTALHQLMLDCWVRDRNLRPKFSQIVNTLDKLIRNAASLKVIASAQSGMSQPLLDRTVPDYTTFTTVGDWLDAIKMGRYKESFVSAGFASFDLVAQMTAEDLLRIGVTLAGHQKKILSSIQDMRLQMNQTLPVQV
The following applies: read-out: Remaining protein kinase activity.

Assay [3] deals with T2, BRSK1 (Homo sapiens, UniProt Q8TDC3).
T2 sequence (Q8TDC3 1-778): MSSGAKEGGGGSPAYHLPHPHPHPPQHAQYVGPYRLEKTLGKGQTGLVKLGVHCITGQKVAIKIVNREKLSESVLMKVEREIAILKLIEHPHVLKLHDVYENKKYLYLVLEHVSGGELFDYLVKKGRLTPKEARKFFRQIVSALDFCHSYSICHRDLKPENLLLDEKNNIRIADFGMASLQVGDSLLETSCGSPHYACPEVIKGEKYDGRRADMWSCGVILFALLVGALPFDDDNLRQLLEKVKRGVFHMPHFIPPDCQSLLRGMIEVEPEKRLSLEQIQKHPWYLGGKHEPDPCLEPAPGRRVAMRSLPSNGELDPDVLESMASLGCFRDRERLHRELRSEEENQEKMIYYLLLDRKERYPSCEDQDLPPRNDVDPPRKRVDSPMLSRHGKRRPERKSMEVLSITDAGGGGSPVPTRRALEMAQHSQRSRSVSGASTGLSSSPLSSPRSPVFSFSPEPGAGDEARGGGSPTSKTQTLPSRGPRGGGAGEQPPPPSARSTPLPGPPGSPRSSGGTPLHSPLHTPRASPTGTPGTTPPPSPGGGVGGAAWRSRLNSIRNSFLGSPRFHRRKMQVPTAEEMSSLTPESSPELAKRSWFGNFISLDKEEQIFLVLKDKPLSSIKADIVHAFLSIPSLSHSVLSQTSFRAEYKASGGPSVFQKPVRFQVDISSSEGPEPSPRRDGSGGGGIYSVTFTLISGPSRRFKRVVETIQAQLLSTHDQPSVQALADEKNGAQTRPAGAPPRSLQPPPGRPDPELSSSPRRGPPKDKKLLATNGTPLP
Particulars: read-out: Remaining protein kinase activity.

Assay [4] deals with PKA (Homo sapiens, UniProt P17612). The following applies: read-out: Remaining protein kinase activity.
For assay [5], the target named is TESK1 (Homo sapiens, UniProt Q15569). The following applies: read-out: Remaining protein kinase activity.
TESK1, sequence (Q15569 whole entry): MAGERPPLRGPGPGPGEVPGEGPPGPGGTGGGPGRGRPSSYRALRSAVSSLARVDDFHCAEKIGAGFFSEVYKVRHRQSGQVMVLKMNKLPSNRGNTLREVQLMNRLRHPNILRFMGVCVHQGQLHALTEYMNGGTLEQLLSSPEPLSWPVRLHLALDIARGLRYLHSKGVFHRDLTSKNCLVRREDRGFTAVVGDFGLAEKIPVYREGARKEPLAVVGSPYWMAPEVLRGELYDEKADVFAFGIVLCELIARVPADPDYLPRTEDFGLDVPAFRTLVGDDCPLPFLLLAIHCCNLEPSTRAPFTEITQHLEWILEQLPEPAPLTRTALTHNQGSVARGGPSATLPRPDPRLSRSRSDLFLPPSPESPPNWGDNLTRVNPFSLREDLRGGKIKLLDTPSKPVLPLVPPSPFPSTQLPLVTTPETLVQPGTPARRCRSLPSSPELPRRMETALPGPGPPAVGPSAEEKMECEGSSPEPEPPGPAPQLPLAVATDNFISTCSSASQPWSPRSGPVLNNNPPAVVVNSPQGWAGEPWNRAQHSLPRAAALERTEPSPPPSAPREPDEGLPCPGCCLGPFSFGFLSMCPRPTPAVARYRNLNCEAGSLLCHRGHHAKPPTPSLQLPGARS
Assay [6] concerns the target T3, TGFBR1 (Homo sapiens, UniProt P36897).
T3 sequence (P36897 34-503): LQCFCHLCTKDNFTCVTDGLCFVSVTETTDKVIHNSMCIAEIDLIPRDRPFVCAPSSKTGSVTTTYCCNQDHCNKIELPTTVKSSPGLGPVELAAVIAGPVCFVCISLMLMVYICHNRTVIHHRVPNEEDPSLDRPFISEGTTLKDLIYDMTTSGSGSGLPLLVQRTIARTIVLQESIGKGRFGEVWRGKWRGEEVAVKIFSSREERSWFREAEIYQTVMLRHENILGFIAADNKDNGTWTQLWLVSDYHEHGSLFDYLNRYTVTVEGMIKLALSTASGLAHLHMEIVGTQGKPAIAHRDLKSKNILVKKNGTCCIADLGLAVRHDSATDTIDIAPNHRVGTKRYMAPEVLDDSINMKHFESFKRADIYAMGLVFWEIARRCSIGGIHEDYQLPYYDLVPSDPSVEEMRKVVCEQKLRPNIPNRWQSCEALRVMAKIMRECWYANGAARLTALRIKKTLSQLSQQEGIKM
The following applies: read-out: Remaining protein kinase activity.

The subject of assay [7] is PHK.
In assay [8] the target is MAPKAP-K3 (Homo sapiens, UniProt Q16644). Particulars: read-out: Remaining protein kinase activity.
MAPKAP-K3, sequence (Q16644 whole entry): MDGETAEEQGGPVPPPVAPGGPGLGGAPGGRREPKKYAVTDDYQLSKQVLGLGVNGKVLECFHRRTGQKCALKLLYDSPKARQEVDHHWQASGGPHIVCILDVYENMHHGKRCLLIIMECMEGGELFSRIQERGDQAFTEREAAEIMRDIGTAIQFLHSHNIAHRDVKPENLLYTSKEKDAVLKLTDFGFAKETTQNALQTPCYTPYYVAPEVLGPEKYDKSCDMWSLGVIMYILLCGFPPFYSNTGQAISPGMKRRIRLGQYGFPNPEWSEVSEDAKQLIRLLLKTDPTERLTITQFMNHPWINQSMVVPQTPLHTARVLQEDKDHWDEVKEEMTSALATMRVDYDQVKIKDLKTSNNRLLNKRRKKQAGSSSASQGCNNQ

Read-outs that look alike come from different tables or passages of the source.

BRK, sequence (Q13882 whole entry): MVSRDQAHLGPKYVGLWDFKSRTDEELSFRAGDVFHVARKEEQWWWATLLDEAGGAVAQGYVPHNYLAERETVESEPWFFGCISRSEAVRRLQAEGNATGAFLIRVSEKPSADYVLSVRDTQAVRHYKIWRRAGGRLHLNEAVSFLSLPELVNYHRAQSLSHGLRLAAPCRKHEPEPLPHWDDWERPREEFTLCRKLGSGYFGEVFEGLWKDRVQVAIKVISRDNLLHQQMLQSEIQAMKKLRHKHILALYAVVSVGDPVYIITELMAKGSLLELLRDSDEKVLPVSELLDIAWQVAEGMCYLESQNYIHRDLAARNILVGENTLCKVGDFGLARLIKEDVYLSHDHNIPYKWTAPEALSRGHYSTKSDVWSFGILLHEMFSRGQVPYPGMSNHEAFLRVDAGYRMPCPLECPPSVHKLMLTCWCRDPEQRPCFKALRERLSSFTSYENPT

Take `COc1ccc2sc(-c3cncc(NC(C)=O)c3)nc2c1` [PST-001, N-(5-(5-Methoxybenzo[d]thiazol-2-yl)pyridin-3-yl)acetamide]: the remaining activity – broadly, the signal under treatment as a percentage of the control signal – at 1 µM was 106% in assay [1]; 147% in assay [2]; 114% in assay [3]; 88% in assay [4]; 105% in assay [5]; 112% in assay [6]. For the same compound, the remaining activity at 1 µM in assay [8] stood at 115%. Further, the remaining activity at 100 µM in assay [1] stood at 106%; in assay [2] it was 130%; in assay [3], 111%; in assay [4], 88%; in assay [5], 85%; in assay [6] it was 129%. Further, in assay [8], the remaining activity at 100 µM was 113%. The “Remaining protein kinase activity” value in assay [7] (100 μM) is recorded as 83%.
With `COc1ccc2sc(-c3cncc(N)c3)nc2c1` [compound 1, 5-(5-Methoxybenzo[d]thiazol-2-yl)pyridin-3-amine], the remaining activity at 1 µM was 94% in assay [1] (BRK, 1 μM); 130% in assay [2] (EPH-B3, 1 μM); 115% in assay [3] (BRSK1, 1 μM); 98% in assay [4] (PKA, 1 μM); 110% in assay [5] (TESK1, 1 μM); 105% in assay [6] (TGFBR1, 1 μM). In addition, the remaining activity at 1 µM in assay [8] (MAPKAP-K3, 1 μM) is 115%. For the same compound, the remaining activity at 100 µM was found to be 50% in assay [1] (BRK, 100 μM); 71% in assay [2] (EPH-B3, 100 μM); 37% in assay [3] (BRSK1, 100 μM); 74% in assay [4] (PKA, 100 μM); 28% in assay [5] (TESK1, 100 μM); 118% in assay [6] (TGFBR1, 100 μM). Also, in assay [8] (MAPKAP-K3, 100 μM), the remaining activity at 100 µM stood at 74%. In addition, the “Remaining protein kinase activity” value in assay [7] (1 μM) turned out to be 101%; in assay [7] (100 μM), 52%.
